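Growth conditions: 96-well plates. Treatment: test compound, 48 hours, 5 concentrations. Analysis: linear interpolation between bracketing concentrations; unreached endpoints set to highest concentration. GI50 is the concentration that inhibits growth by half.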 Calls of active or inactive are those of the source. No stated cut-off is given here; in the data, active = GI50 up to about 1.1 µM and inactive = higher.
Key:
Experiment in all cases: NCI anticancer screen, dose series, 48 h
KM12 = system: KM12
UACC-257 = system: UACC-257
SR = system: SR
LOX IMVI = system: LOX IMVI
IGROV-1 = system: IGROV-1
HCT-116 = system: HCT-116
NCI-H23 = system: NCI-H23
OVCAR-5 = system: OVCAR-5
786-0 = system: 786-0
UACC-62 = system: UACC-62
NCI-H522 = system: NCI-H522
SK-OV-3 = system: SK-OV-3
SN12C = system: SN12C
EKVX = system: EKVX
CAKI-1 = system: CAKI-1
HCT-15 = system: HCT-15
OVCAR-3 = system: OVCAR-3

Measured: GI50

N#C/C(c1nc2ccccc2[nH]1)=c1\s/c(=C/c2ccccc2)c(=O)n1-c1ccccc1
> 100 µM: HCT-15
inactive: KM12 > 100 µM | UACC-257 > 100 µM | SR > 100 µM | LOX IMVI > 100 µM | IGROV-1 2.9 µM | HCT-116 > 100 µM | NCI-H23 > 100 µM | OVCAR-5 > 100 µM | 786-0 > 100 µM | UACC-62 > 100 µM | NCI-H522 > 100 µM | SK-OV-3 > 100 µM | SN12C > 100 µM | EKVX > 100 µM | CAKI-1 > 100 µM | OVCAR-3 > 100 µM

CCC(C)(C)NS(=O)(=O)c1ccccc1
inactive: KM12 > 100 µM | UACC-257 > 100 µM | IGROV-1 > 100 µM | HCT-116 > 100 µM | NCI-H23 > 100 µM | OVCAR-5 > 100 µM | 786-0 > 100 µM | UACC-62 > 100 µM | SK-OV-3 > 100 µM | EKVX > 100 µM | CAKI-1 > 100 µM | OVCAR-3 > 100 µM
> 100 µM: HCT-15

N#C/N=C(\NCCc1c[nH]c2ccccc12)NCc1ccccc1
inactive: KM12 36.4 µM | UACC-257 37 µM | SR 32.5 µM | LOX IMVI 75.9 µM | IGROV-1 > 100 µM | HCT-116 50.9 µM | NCI-H23 > 100 µM | OVCAR-5 > 100 µM | 786-0 25.5 µM | UACC-62 53.6 µM | SK-OV-3 > 100 µM | SN12C 93.8 µM | EKVX 45.6 µM | OVCAR-3 42.8 µM
49.4 µM: HCT-15

COc1ccc(NC(=O)C(=O)C2NC(=S)NC2=O)c(OC)c1 (stereo unspecified)
> 100 µM: HCT-15
inactive: KM12 > 100 µM | UACC-257 > 100 µM | LOX IMVI > 100 µM | IGROV-1 > 100 µM | HCT-116 > 100 µM | NCI-H23 > 100 µM | 786-0 > 100 µM | UACC-62 > 100 µM | SK-OV-3 > 100 µM | SN12C > 100 µM | EKVX > 100 µM | OVCAR-3 > 100 µM

CCCCCCCCCCNC(=S)OCCCC
inactive: KM12 14.7 µM | UACC-257 23.4 µM | SR 17.4 µM | LOX IMVI 15.9 µM | IGROV-1 28.1 µM | HCT-116 18.3 µM | NCI-H23 23.1 µM | OVCAR-5 11.3 µM | 786-0 29.1 µM | UACC-62 22.5 µM | NCI-H522 18.6 µM | SK-OV-3 30 µM | SN12C 19.7 µM | EKVX 25.8 µM | CAKI-1 25.8 µM
19.2 µM: HCT-15

C[C@]12CCCC(=O)C1C[C@H](C(=O)O)CC2 (stereo partly specified)
> 100 µM: HCT-15
inactive: KM12 > 100 µM | UACC-257 > 100 µM | SR > 100 µM | LOX IMVI > 100 µM | IGROV-1 > 100 µM | HCT-116 > 100 µM | NCI-H23 > 100 µM | OVCAR-5 > 100 µM | 786-0 > 100 µM | UACC-62 > 100 µM | NCI-H522 > 100 µM | SK-OV-3 > 100 µM | SN12C > 100 µM | CAKI-1 > 100 µM | OVCAR-3 > 100 µM

O=[N+]([O-])c1ccc(OCCNc2cccc3ccccc23)cc1
inactive: KM12 > 100 µM | UACC-257 > 100 µM | IGROV-1 > 100 µM | HCT-116 42.8 µM | NCI-H23 30.6 µM | OVCAR-5 > 100 µM | 786-0 > 100 µM | UACC-62 > 100 µM | NCI-H522 > 100 µM | SK-OV-3 > 100 µM | SN12C > 100 µM | EKVX > 100 µM | CAKI-1 > 100 µM | OVCAR-3 > 100 µM
9.73 µM: HCT-15

Cc1cc2nc3c(C(OC4OC(CO)C(O)C(O)C4O)C(O)CO)nn(-c4ccccc4)c3nc2cc1C (stereo unspecified)
inactive: KM12 > 100 µM | UACC-257 > 100 µM | SR > 100 µM | LOX IMVI > 100 µM | HCT-116 > 100 µM | NCI-H23 > 100 µM | OVCAR-5 > 100 µM | 786-0 > 100 µM | UACC-62 > 100 µM | NCI-H522 > 100 µM | SK-OV-3 > 100 µM | SN12C > 100 µM | EKVX > 100 µM | OVCAR-3 > 100 µM
> 100 µM: HCT-15

O=c1c(O)cccn1C1OC(CO)C(O)C1O (stereo unspecified)
inactive: KM12 > 100 µM | UACC-257 > 100 µM | LOX IMVI > 100 µM | IGROV-1 > 100 µM | HCT-116 > 100 µM | NCI-H23 > 100 µM | OVCAR-5 > 100 µM | 786-0 > 100 µM | UACC-62 > 100 µM | NCI-H522 > 100 µM | SK-OV-3 > 100 µM | SN12C > 100 µM | EKVX > 100 µM | CAKI-1 > 100 µM
> 100 µM: HCT-15

O=C(c1cccs1)N(C(=S)N1CCN(c2ccccn2)CC1)C1CCCCC1
inactive: KM12 60.5 µM | UACC-257 50.9 µM | SR 36.6 µM | LOX IMVI 77.4 µM | IGROV-1 > 100 µM | HCT-116 49.3 µM | NCI-H23 > 100 µM | OVCAR-5 > 100 µM | 786-0 > 100 µM | UACC-62 > 100 µM | NCI-H522 66.2 µM | SK-OV-3 > 100 µM | SN12C > 100 µM | CAKI-1 76.2 µM | OVCAR-3 57.3 µM
78 µM: HCT-15

Cc1cc(O)c2c(c1)OC1(C)CCC3C(C)(C)CCCC34COC2C14 (stereo unspecified)
inactive: KM12 16.8 µM | UACC-257 15.5 µM | SR > 10 µM | LOX IMVI 14 µM | IGROV-1 19.7 µM | HCT-116 14.3 µM | NCI-H23 17.6 µM | OVCAR-5 14.7 µM | 786-0 14.4 µM | UACC-62 19.2 µM | NCI-H522 17.6 µM | SN12C 16.7 µM | EKVX 11.9 µM | CAKI-1 18.3 µM | OVCAR-3 13.4 µM

CC(C)CCC[C@@H](C)C1CCC2[C@@H]3CC=C4C[C@@H](C(=O)NCCN(C)C)CC[C@]4(C)C3CC[C@@]21C (stereo partly specified)
19 µM: HCT-15
inactive: KM12 14.9 µM | UACC-257 22.4 µM | LOX IMVI 51.4 µM | IGROV-1 31.1 µM | NCI-H23 18.3 µM | OVCAR-5 > 100 µM | 786-0 17.3 µM | UACC-62 42.4 µM | NCI-H522 41 µM | SK-OV-3 > 100 µM | SN12C 19.4 µM | EKVX 47.5 µM | CAKI-1 22.3 µM | OVCAR-3 31.4 µM

CC(=O)OC1CC2C(C)(C)C(=O)C=C[C@]2(C)C2CCC3(C)C(c4ccoc4)C(=O)[C@H]4O[C@]43[C@]12C (stereo partly specified)
inactive: LOX IMVI 20 µM | IGROV-1 25.5 µM | HCT-116 15.4 µM | NCI-H23 21.5 µM | OVCAR-5 26.7 µM | 786-0 18.1 µM | UACC-62 18 µM | NCI-H522 16.4 µM | SK-OV-3 > 100 µM | SN12C 23.3 µM | EKVX 31.3 µM | CAKI-1 20.3 µM
15.1 µM: HCT-15

Clc1cc(Cc2cc(Cl)c(Cl)c3c2OCOC3)c2c(c1Cl)COCO2
> 100 µM: HCT-15
inactive: KM12 > 100 µM | UACC-257 94 µM | SR 55.2 µM | LOX IMVI 53.1 µM | IGROV-1 40.6 µM | HCT-116 36.4 µM | NCI-H23 > 100 µM | OVCAR-5 > 100 µM | 786-0 25.1 µM | UACC-62 49.1 µM | NCI-H522 41.9 µM | SK-OV-3 23.3 µM | SN12C 58.6 µM | CAKI-1 22.3 µM | OVCAR-3 25.3 µM

COc1ccc(-c2cc(-c3cc(C)ccc3O)nc(O)n2)cc1
inactive: KM12 > 100 µM | UACC-257 > 100 µM | SR > 100 µM | LOX IMVI > 100 µM | IGROV-1 > 100 µM | HCT-116 77.1 µM | NCI-H23 > 100 µM | 786-0 62.5 µM | UACC-62 > 100 µM | NCI-H522 24.6 µM | SK-OV-3 44.4 µM | SN12C > 100 µM | EKVX 7.11 µM | CAKI-1 > 100 µM | OVCAR-3 > 100 µM

CSC1(C)CC2C(CC1N1CCOCC1)C2(C)C (stereo unspecified)
> 100 µM: HCT-15
inactive: KM12 > 100 µM | UACC-257 > 100 µM | IGROV-1 > 100 µM | HCT-116 > 100 µM | NCI-H23 > 100 µM | OVCAR-5 > 100 µM | 786-0 > 100 µM | SK-OV-3 > 100 µM | SN12C > 100 µM | OVCAR-3 > 100 µM

CC(=O)Oc1cc(C)c2c(c1OC(C)=O)CC1(O2)[C@@H](C)CCC2[C@@]3(C)CC[C@H](OC(C)=O)C(C)(C)C3CC[C@]21C (stereo partly specified)
inactive: KM12 5.13 µM | UACC-257 5.97 µM | SR 3.03 µM | LOX IMVI 4.24 µM | IGROV-1 2.01 µM | HCT-116 4.19 µM | NCI-H23 2.19 µM | OVCAR-5 5.46 µM | 786-0 2.28 µM | UACC-62 2.46 µM | SK-OV-3 5.36 µM | SN12C 2.98 µM | EKVX 3.69 µM | CAKI-1 2.2 µM | OVCAR-3 2.72 µM
3.53 µM: HCT-15

O=C(CSc1nnc(Cc2ccccc2)o1)Nc1ccccc1Cl
> 100 µM: HCT-15
inactive: KM12 > 100 µM | LOX IMVI > 100 µM | IGROV-1 > 100 µM | HCT-116 > 100 µM | NCI-H23 > 100 µM | OVCAR-5 > 100 µM | 786-0 > 100 µM | UACC-62 > 100 µM | NCI-H522 > 100 µM | SK-OV-3 > 100 µM | SN12C > 100 µM | CAKI-1 > 100 µM | OVCAR-3 > 100 µM
